A word on the Ki: it is the equilibrium dissociation constant of an inhibitor or competing ligand from its target.

Molecules are shown by their SMILES.

The target in assay [1] is T1, Cholinesterase (Homo sapiens, UniProt P06276). In words: Binding affinity to human BuChE (unknown origin) assessed as overall carbamolyation rate at 100 to 1000 nM incubated for 60 mins.
The target of assay [2] is T1, Cholinesterase. In words: Binding affinity to human BuChE (unknown origin) assessed as overall carbamolyation rate at 0.025 to 100 uM incubated for 60 mins.

T1 sequence (P06276 whole entry): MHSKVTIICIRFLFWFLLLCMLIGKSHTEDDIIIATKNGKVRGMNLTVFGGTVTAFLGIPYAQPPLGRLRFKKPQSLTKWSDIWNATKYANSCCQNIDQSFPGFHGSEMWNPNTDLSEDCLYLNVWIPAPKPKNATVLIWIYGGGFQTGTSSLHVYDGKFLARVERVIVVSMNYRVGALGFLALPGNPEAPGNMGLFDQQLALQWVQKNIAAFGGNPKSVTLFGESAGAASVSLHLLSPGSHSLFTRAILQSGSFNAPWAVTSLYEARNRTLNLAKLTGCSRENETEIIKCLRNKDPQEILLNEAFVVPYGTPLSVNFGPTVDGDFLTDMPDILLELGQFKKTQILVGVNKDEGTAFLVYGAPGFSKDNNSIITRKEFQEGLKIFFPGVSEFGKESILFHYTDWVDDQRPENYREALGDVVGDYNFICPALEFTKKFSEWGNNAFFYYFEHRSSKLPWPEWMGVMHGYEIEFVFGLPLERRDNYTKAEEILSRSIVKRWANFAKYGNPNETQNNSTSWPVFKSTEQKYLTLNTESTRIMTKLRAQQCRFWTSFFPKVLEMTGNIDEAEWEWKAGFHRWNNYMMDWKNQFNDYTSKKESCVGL

Take `COc1ccc(C(C)=O)c(OC(=O)N(C)Cc2ccc(F)cc2)c1`: the Ki on Cholinesterase [1] came to 2.8 nM.

Turning to `COc1ccc(C(C)=O)c(OC(=O)N2CCCCC2)c1`, the Ki on Cholinesterase [2] was determined as 0.31 nM.

Values taken from BindingDB's records for PubMed 39481228 (Anhui Medical University).
